In PubChem BioAssay AID1224914:

Biological target: Serine/threonine-protein kinase PAK 2 (Homo sapiens) (UniProt Q13177)
Test: PubChem AID 1224914
Settings: PAK2 binding assay

Sequence of Serine/threonine-protein kinase PAK 2 (Homo sapiens) (Q13177 whole entry, looked up): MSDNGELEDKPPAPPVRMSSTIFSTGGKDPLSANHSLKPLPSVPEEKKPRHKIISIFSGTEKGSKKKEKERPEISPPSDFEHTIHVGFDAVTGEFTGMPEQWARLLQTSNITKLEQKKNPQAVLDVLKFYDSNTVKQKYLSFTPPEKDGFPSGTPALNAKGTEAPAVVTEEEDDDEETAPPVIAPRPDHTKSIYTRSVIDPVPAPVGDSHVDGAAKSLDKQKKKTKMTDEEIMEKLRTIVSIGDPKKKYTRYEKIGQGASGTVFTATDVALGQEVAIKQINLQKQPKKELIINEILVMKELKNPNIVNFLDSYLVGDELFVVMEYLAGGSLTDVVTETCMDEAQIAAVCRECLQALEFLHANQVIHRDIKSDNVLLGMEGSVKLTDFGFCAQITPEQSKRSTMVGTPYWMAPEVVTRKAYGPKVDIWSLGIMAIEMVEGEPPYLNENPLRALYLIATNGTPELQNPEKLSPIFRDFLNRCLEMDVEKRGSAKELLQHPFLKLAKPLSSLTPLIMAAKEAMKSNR

How did the Kd turn out when `CC(C)NC(=O)N1CC[C@H](N=C2Nc3cc(F)ccc3N(CC(F)F)c3ccc(Cl)cc32)C1` was run?
Its Kd is 400 nM.
